Values quoted from earlier work as cited in patent US20160375049A1, “COMPOSITIONS” (GLOBALACORN LTD, priority 2013, published 2016).

Legend:
P2X3 receptors = target: T1, P2X3 receptors (Homo sapiens, UniProt P56373)
T1 sequence (P56373 1-397): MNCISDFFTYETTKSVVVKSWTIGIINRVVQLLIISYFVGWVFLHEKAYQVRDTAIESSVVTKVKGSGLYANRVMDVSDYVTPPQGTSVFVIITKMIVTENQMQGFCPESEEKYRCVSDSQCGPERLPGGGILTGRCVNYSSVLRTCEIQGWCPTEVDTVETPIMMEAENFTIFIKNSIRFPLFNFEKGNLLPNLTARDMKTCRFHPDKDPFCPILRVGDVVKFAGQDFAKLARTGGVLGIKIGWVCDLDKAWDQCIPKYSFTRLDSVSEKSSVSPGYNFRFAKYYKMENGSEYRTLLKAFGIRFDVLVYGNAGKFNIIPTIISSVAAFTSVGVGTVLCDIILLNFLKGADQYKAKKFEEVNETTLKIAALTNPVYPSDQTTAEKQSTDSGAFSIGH

[1] = tested on: inflammatory and neuropathic pain models; conditions: systemic administration
[2] = tested on: acute noxious stimulation; conditions: in vivo
persistent pain = conditions: in vivo
nociception = conditions: in vivo

| Structure (SMILES) | binding to P2X3 receptors, concentration range (P2X3 receptors) | nociception in inflammatory and neuropathic pain models [1] | activity in models of acute noxious stimulation [2] | persistent pain in formalin and acetic acid-induced abdominal constriction tests (persistent pain) | anti-nociception in animal models (nociception) |
| --- | --- | --- | --- | --- | --- |
| O=C(O)c1cc(C(=O)O)c(C(=O)N(Cc2cccc(Oc3ccccc3)c2)[C@H]2CCCc3ccccc32)cc1C(=O)O [A-317491] | micromolar range | effectively reduced nociception | generally inactive | effectively blocked persistent pain | – |
| COc1cc(Cc2cnc(N)nc2N)c(C(C)C)cc1OC [RO-3] | – | – | – | – | induce anti-nociception |
